In ChEMBL document CHEMBL3046000, “Design and synthesis of 1-(benzothiazol-5-yl)-1H-1,2,4-triazol-5-ones as protoporphyrinogen oxidase inhibitors” (Bioorg Med Chem, 2013):

The molecules below were run on Digitaria sanguinalis (assay: Post-emergence herbicidal activity against Digitaria sanguinalis (hairy crabgrass) seedlings assessed as plant growth inhibition at 75 g ai/ha measured 15 days after compound treatment under greenhouse conditions). Details: 360 h, read-out: GI.
Assay type: functional

SMILES	inhibition of growth at 75 g/ha
Cc1nn(-c2cc3nc(SCCC(=O)O)sc3cc2F)c(=O)n1C(F)F	50%
CCOC(=O)Sc1nc2cc(-n3nc(C)n(C(F)F)c3=O)c(F)cc2s1	< 50%

Each molecule was assayed on Chenopodium album (assay: Post-emergence herbicidal activity against Chenopodium album seedlings assessed as plant growth inhibition at 150 g ai/ha measured 15 days after compound treatment under greenhouse conditions). Details: 360 h, read-out: GI.
Assay type: functional

SMILES	inhibition of growth at 150 g/ha
Cc1nn(-c2cc3nc(SCCC(=O)O)sc3cc2F)c(=O)n1C(F)F	≥ 90%
CCOC(=O)Sc1nc2cc(-n3nc(C)n(C(F)F)c3=O)c(F)cc2s1	≥ 90%

What follows are molecules tested on Echinochloa crus-galli (assay: Post emergence herbicidal activity against Echinochloa crus-galli (barnyard grass) seedlings assessed as plant growth inhibition at 37.5 g ai/ha measured 15 days after compound treatment under greenhouse conditions). Details: 360 h, read-out: GI.
Assay type: functional

SMILES	inhibition of growth at 37.5 g/ha
Cc1nn(-c2cc3nc(SCCC(=O)O)sc3cc2F)c(=O)n1C(F)F	< 50%
CCOC(=O)Sc1nc2cc(-n3nc(C)n(C(F)F)c3=O)c(F)cc2s1	< 50%

These molecules were tested on Digitaria sanguinalis (assay: Post-emergence herbicidal activity against Digitaria sanguinalis (hairy crabgrass) seedlings assessed as plant growth inhibition at 150 g ai/ha measured 15 days after compound treatment under greenhouse conditions). Details: 360 h, read-out: GI.
Assay type: functional

SMILES	inhibition of growth at 150 g/ha
Cc1nn(-c2cc3nc(SCCC(=O)O)sc3cc2F)c(=O)n1C(F)F	50%
CCOC(=O)Sc1nc2cc(-n3nc(C)n(C(F)F)c3=O)c(F)cc2s1	50%

These molecules were tested on Echinochloa crus-galli (assay: Post emergence herbicidal activity against Echinochloa crus-galli (barnyard grass) seedlings assessed as plant growth inhibition at 150 g ai/ha measured 15 days after compound treatment under greenhouse conditions). Details: 360 h, read-out: GI.
Assay type: functional

SMILES	inhibition of growth at 150 g/ha
Cc1nn(-c2cc3nc(SCCC(=O)O)sc3cc2F)c(=O)n1C(F)F	50%
CCOC(=O)Sc1nc2cc(-n3nc(C)n(C(F)F)c3=O)c(F)cc2s1	50%

What follows are molecules tested on Brassica juncea (assay: Post-emergence herbicidal activity against Brassica juncea seedlings assessed as plant growth inhibition at 37.5 g ai/ha measured 15 days after compound treatment under greenhouse conditions). Details: 360 h, read-out: GI.
Assay type: functional

SMILES	inhibition of growth at 37.5 g/ha
Cc1nn(-c2cc3nc(SCCC(=O)O)sc3cc2F)c(=O)n1C(F)F	60%
CCOC(=O)Sc1nc2cc(-n3nc(C)n(C(F)F)c3=O)c(F)cc2s1	< 50%

The molecules below were run on Setaria faberi (assay: Post-emergence herbicidal activity against Setaria faberi (Giant Foxtail) seedlings assessed as plant growth inhibition at 150 g ai/ha measured 15 days after compound treatment under greenhouse conditions). Details: 360 h, read-out: GI.
Assay type: functional

SMILES	inhibition of growth at 150 g/ha
Cc1nn(-c2cc3nc(SCCC(=O)O)sc3cc2F)c(=O)n1C(F)F	< 50%
CCOC(=O)Sc1nc2cc(-n3nc(C)n(C(F)F)c3=O)c(F)cc2s1	< 50%

The molecules below were run on Brassica juncea (assay: Post-emergence herbicidal activity against Brassica juncea seedlings assessed as plant growth inhibition at 150 g ai/ha measured 15 days after compound treatment under greenhouse conditions). Details: 360 h, read-out: GI.
Assay type: functional

SMILES	inhibition of growth at 150 g/ha
Cc1nn(-c2cc3nc(SCCC(=O)O)sc3cc2F)c(=O)n1C(F)F	≥ 90%
CCOC(=O)Sc1nc2cc(-n3nc(C)n(C(F)F)c3=O)c(F)cc2s1	≥ 90%

The molecules below were run on Digitaria sanguinalis (assay: Post-emergence herbicidal activity against Digitaria sanguinalis (hairy crabgrass) seedlings assessed as plant growth inhibition at 37.5 g ai/ha measured 15 days after compound treatment under greenhouse conditions). Details: 360 h, read-out: GI.
Assay type: functional

SMILES	inhibition of growth at 37.5 g/ha
Cc1nn(-c2cc3nc(SCCC(=O)O)sc3cc2F)c(=O)n1C(F)F	< 50%
CCOC(=O)Sc1nc2cc(-n3nc(C)n(C(F)F)c3=O)c(F)cc2s1	< 50%

What follows are molecules tested on Setaria faberi (assay: Post-emergence herbicidal activity against Setaria faberi (Giant Foxtail) seedlings assessed as plant growth inhibition at 75 g ai/ha measured 15 days after compound treatment under greenhouse conditions). Details: 360 h, read-out: GI.
Assay type: functional

SMILES	inhibition of growth at 75 g/ha
Cc1nn(-c2cc3nc(SCCC(=O)O)sc3cc2F)c(=O)n1C(F)F	50%
CCOC(=O)Sc1nc2cc(-n3nc(C)n(C(F)F)c3=O)c(F)cc2s1	< 50%

The molecules below were run against T1, Protoporphyrinogen oxidase, chloroplastic (Nicotiana tabacum, UniProt O24163) (assay: Inhibition of Nicotiana tabacum (tobacco) recombinant PPO assessed as protoporphyrin IX formation at room temperature by fluorimetric assay). Details: not given.
T1 sequence (O24163 whole entry): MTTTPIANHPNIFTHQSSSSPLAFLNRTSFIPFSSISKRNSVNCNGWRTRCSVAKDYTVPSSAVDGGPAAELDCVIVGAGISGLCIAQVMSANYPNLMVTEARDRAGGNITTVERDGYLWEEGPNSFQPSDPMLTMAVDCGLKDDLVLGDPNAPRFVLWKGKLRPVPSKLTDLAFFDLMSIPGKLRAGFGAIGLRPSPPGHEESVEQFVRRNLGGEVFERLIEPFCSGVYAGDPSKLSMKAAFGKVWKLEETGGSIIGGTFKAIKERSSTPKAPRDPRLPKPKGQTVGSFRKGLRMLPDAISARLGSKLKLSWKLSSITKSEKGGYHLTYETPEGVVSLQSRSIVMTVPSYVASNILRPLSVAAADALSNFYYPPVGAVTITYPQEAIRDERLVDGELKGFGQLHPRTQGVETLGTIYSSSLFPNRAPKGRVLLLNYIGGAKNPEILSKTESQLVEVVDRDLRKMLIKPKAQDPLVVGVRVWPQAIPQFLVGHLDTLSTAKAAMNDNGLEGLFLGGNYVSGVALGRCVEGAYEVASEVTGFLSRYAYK

Ki	SMILES
1670 nM	Cc1nn(-c2cc3nc(SCCC(=O)O)sc3cc2F)c(=O)n1C(F)F
580 nM	CCOC(=O)Sc1nc2cc(-n3nc(C)n(C(F)F)c3=O)c(F)cc2s1

What follows are molecules tested on Amaranthus retroflexus (assay: Post emergence herbicidal activity against Amaranthus retroflexus seedlings assessed as plant growth inhibition at 37.5 g ai/ha measured 15 days after compound treatment under greenhouse conditions). Details: 360 h, read-out: GI.
Assay type: functional

SMILES	inhibition of growth at 37.5 g/ha
Cc1nn(-c2cc3nc(SCCC(=O)O)sc3cc2F)c(=O)n1C(F)F	60%
CCOC(=O)Sc1nc2cc(-n3nc(C)n(C(F)F)c3=O)c(F)cc2s1	< 50%

What follows are molecules tested on Amaranthus retroflexus (assay: Post emergence herbicidal activity against Amaranthus retroflexus seedlings assessed as plant growth inhibition at 75 g ai/ha measured 15 days after compound treatment under greenhouse conditions). Details: 360 h, read-out: GI.
Assay type: functional

SMILES	inhibition of growth at 75 g/ha
Cc1nn(-c2cc3nc(SCCC(=O)O)sc3cc2F)c(=O)n1C(F)F	≥ 90%
CCOC(=O)Sc1nc2cc(-n3nc(C)n(C(F)F)c3=O)c(F)cc2s1	< 50%

These molecules were tested on Brassica juncea (assay: Post-emergence herbicidal activity against Brassica juncea seedlings assessed as plant growth inhibition at 75 g ai/ha measured 15 days after compound treatment under greenhouse conditions). Details: 360 h, read-out: GI.
Assay type: functional

SMILES	inhibition of growth at 75 g/ha
Cc1nn(-c2cc3nc(SCCC(=O)O)sc3cc2F)c(=O)n1C(F)F	≥ 90%
CCOC(=O)Sc1nc2cc(-n3nc(C)n(C(F)F)c3=O)c(F)cc2s1	< 50%

What follows are molecules tested on Setaria faberi (assay: Post-emergence herbicidal activity against Setaria faberi (Giant Foxtail) seedlings assessed as plant growth inhibition at 37.5 g ai/ha measured 15 days after compound treatment under greenhouse conditions). Details: 360 h, read-out: GI.
Assay type: functional

SMILES	inhibition of growth at 37.5 g/ha
Cc1nn(-c2cc3nc(SCCC(=O)O)sc3cc2F)c(=O)n1C(F)F	< 50%
CCOC(=O)Sc1nc2cc(-n3nc(C)n(C(F)F)c3=O)c(F)cc2s1	< 50%

The molecules below were run on Chenopodium album (assay: Post-emergence herbicidal activity against Chenopodium album seedlings assessed as plant growth inhibition at 37.5 g ai/ha measured 15 days after compound treatment under greenhouse conditions). Details: 360 h, read-out: GI.
Assay type: functional

SMILES	inhibition of growth at 37.5 g/ha
Cc1nn(-c2cc3nc(SCCC(=O)O)sc3cc2F)c(=O)n1C(F)F	80%
CCOC(=O)Sc1nc2cc(-n3nc(C)n(C(F)F)c3=O)c(F)cc2s1	< 50%

What follows are molecules tested on Echinochloa crus-galli (assay: Post emergence herbicidal activity against Echinochloa crus-galli (barnyard grass) seedlings assessed as plant growth inhibition at 75 g ai/ha measured 15 days after compound treatment under greenhouse conditions). Details: 360 h, read-out: GI.
Assay type: functional

SMILES	inhibition of growth at 75 g/ha
Cc1nn(-c2cc3nc(SCCC(=O)O)sc3cc2F)c(=O)n1C(F)F	< 50%
CCOC(=O)Sc1nc2cc(-n3nc(C)n(C(F)F)c3=O)c(F)cc2s1	< 50%

These molecules were tested on Chenopodium album (assay: Post-emergence herbicidal activity against Chenopodium album seedlings assessed as plant growth inhibition at 75 g ai/ha measured 15 days after compound treatment under greenhouse conditions). Details: 360 h, read-out: GI.
Assay type: functional

SMILES	inhibition of growth at 75 g/ha
Cc1nn(-c2cc3nc(SCCC(=O)O)sc3cc2F)c(=O)n1C(F)F	≥ 90%
CCOC(=O)Sc1nc2cc(-n3nc(C)n(C(F)F)c3=O)c(F)cc2s1	60%

The molecules below were run on Amaranthus retroflexus (assay: Post emergence herbicidal activity against Amaranthus retroflexus seedlings assessed as plant growth inhibition at 150 g ai/ha measured 15 days after compound treatment under greenhouse conditions). Details: 360 h, read-out: GI.
Assay type: functional

SMILES	inhibition of growth at 150 g/ha
Cc1nn(-c2cc3nc(SCCC(=O)O)sc3cc2F)c(=O)n1C(F)F	≥ 90%
CCOC(=O)Sc1nc2cc(-n3nc(C)n(C(F)F)c3=O)c(F)cc2s1	≥ 90%
